Several values for one entry are separate records, joined by “and”; a condition that tells them apart may be missing. Identical values can stand only once.

The target of the first assay is human P2X3 receptor (Homo sapiens (Human), UniProt P56373). The assay can be described thus: Evaluation of human P2X3 receptor inhibitory activity (Fluo-3 calcium fluorescence, FDSS 3000, ATP stimulation).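 Note: stimulus was 50 nM ATP with fluorescence followed for 3 min, and the response per well was peak post-ATP fluorescence divided by the reading at measurement start.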 The format is cell-based. Conditions: C6BU-1 cells stably expressing human P2X3 receptor.
Chain of human P2X3 receptor (P56373 whole entry): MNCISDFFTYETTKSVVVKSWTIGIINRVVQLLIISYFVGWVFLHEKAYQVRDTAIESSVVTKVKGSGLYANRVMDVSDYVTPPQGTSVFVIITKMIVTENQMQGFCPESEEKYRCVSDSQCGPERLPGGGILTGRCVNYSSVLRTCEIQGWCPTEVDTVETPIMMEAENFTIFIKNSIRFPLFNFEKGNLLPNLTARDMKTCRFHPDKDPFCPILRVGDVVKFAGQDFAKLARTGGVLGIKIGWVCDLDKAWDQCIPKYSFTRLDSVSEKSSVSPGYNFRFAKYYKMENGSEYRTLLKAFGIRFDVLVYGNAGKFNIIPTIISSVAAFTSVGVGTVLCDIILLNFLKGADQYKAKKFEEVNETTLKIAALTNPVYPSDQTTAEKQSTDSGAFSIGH
Regarding `CCn1c(=O)[nH]/c(=N\c2ccc(Oc3ccc(F)c(C(=O)OC)c3)cc2)n(Cc2ccc(Cl)cc2)c1=O` [Compound I-2057], the IC50 is 21 nM.

Take `CCCc1ccc(/N=c2\[nH]c(=O)n(C[C@H](C)C(=O)OC)c(=O)n2Cc2ccc(Cl)cc2)cc1` [Compound I-0621]: the IC50 came out at 58 nM.

For `COC(=O)[C@H](C)[C@H](C)n1c(=O)[nH]/c(=N\c2ccc(Oc3ccc(C)nc3)cc2)n(Cc2ccc(Cl)cc2)c1=O` [Compound I-1375], the half-inhibitory concentration (IC50) amounted to 5 nM.

`CCn1c(=O)[nH]/c(=N\c2ccc(Oc3ccc(C(=O)OC)nc3)cc2)n(Cc2ccc(Cl)cc2)c1=O` [Compound I-2105]: the half-inhibitory concentration (IC50) was found to be 1 nM.

With `COC(=O)[C@@H](C)[C@@H](C)n1c(=O)[nH]/c(=N\c2ccc(CC(C)C)c(Cl)c2)n(Cc2ccc(C)cc2)c1=O` [Compound I-1439], the 50% inhibitory concentration (IC50) is 39 nM.

For `CCOC(=O)Cc1c(C)oc2ccc(/N=c3\[nH]c(=O)n(CC)c(=O)n3Cc3ccc(Cl)cc3)cc12` [Compound I-2149], the IC50 was 791 nM.

For `CCn1c(=O)[nH]/c(=N\c2ccc(Oc3cncc(C(N)=O)c3)cc2)n(CC2CCC3(CC2)CC3)c1=O` [Compound I-2178], the IC50 was 5 nM.

Turning to `CCn1c(=O)[nH]/c(=N\c2ccc(OCCN(C)C(C)=O)cc2)n(Cc2ccc(Cl)cc2)c1=O` [Compound I-2197], the IC50 was 215 nM.

For the molecule `CCn1c(=O)[nH]/c(=N\c2ccc(Oc3cc(CO)on3)cc2)n(Cc2ccc(Cl)cc2)c1=O` [Compound I-1968], the IC50 was 15 nM.

As for `Cc1nc2ccc(/N=c3\[nH]c(=O)n(C[C@H](C)C(=O)O)c(=O)n3Cc3ccc(Cl)cc3)cc2s1` [Compound I-1349], the IC50 is 15 nM.

On to `CCn1c(=O)[nH]/c(=N\c2ccc(Oc3ncc(C(=O)O)o3)cc2)n(Cc2ccc(Cl)cc2)c1=O` [Compound I-2189], for which the 50% inhibitory concentration (IC50) was 47 nM and 51 nM.

As to `CCn1c(=O)[nH]/c(=N\c2ccc(Oc3ccnc(OC)n3)cc2)n(Cc2ccc(Cl)cc2)c1=O` [Compound I-2008], the IC50 worked out at 7 nM.

Regarding `CCOC(=O)CCn1c(=O)[nH]/c(=N\c2ccc3nc(C)sc3c2)n(CC2CCC(C)CC2)c1=O` (centres unmarked) [Compound I-1990], the 50% inhibitory concentration (IC50) is 2 nM.

With `CC(C)Oc1ccc(/N=c2\[nH]c(=O)n(CC(=O)OCC3CCOCC3)c(=O)n2Cc2ccc(Cl)cc2)cc1Cl` [Compound I-0667], the IC50 worked out at 20 nM.

In the case of `Cc1cc(/N=c2\[nH]c(=O)n([C@@H]3CCOC3=O)c(=O)n2Cc2ccc(Cl)cc2)ccc1OC(C)C` [Compound I-0808], the IC50 is 203 nM.

Take `CC(C)Oc1ccc(/N=c2\[nH]c(OCC(=O)NC(CO)CO)nc(=O)n2Cc2ccc(Cl)cc2)cc1F` [Compound I-0584]: the IC50 was determined as 248 nM.

In the case of `COCc1cc(/N=c2\[nH]c(=O)n(CCC(=O)O)c(=O)n2Cc2ccc(C)cc2)ccc1OC(C)C` [Compound I-1428], the IC50 turned out to be 926 nM.

In the case of `C[C@H](CO)Cn1c(=O)[nH]/c(=N\c2ccc3oc(CO)cc3c2)n(Cc2ccc(Cl)cc2)c1=O` [Compound I-1970], the IC50 was 82 nM.

For `CC(C)Oc1ccc(/N=c2\[nH]c(OCC(=O)NCCO)nc(=O)n2Cc2ccc(Cl)cc2)cc1F` [Compound I-0582], the IC50 is 365 nM.

As for `Cc1oc2ccc(/N=c3\[nH]c(=O)n(CCCO)c(=O)n3Cc3ccc(Cl)cc3)cc2c1C` [Compound I-2074], the concentration for half-maximal inhibition (IC50) came out at 7 nM.

Take `COC(=O)[C@@H](C)Cn1c(=O)[nH]/c(=N\c2cnc(OC3CCC3)c(Cl)c2)n(Cc2ccc(Cl)cc2)c1=O` [Compound I-1399]: the IC50 turned out to be 50 nM.

Regarding `COC(=O)C(C)(C)Cn1c(=O)[nH]/c(=N\c2ccc(CC(C)C)c(Cl)c2)n(Cc2ccc(C)cc2)c1=O` [Compound I-1447], the concentration for half-maximal inhibition (IC50) came to 6 nM.

Turning to `COC(=O)CCCn1c(=O)[nH]/c(=N\c2ccc(Oc3ccncc3)cc2)n(Cc2ccc(Cl)cc2)c1=O` [Compound I-1245], the IC50 came to 3 nM.

As for `CCOc1ccc(/N=c2\[nH]c(=O)n(C[C@H](C)C(=O)O)c(=O)n2Cc2ccc(C)cc2)cc1Cl` [Compound I-0682], the IC50 was 23 nM.

For `O=c1[nH]/c(=N\c2ccc(OC3CCC3)cc2)n(Cc2ccc(Cl)cc2)c(=O)n1CCO` [Compound I-2010], the IC50 is 54 nM.

The assay is the same for the next values; noted with them: C6BU-1 cells stably expressing human P2X3 receptor, Fluo-3 fluorescence, FDSS 3000.
Consider `Cc1ccc(Cn2c(=O)n([C@@H](C)[C@@H](C)C(=O)O)c(=O)[nH]/c2=N\c2ccc(OC(C)C)c(F)c2)cc1` [Compound I-0974], for which the IC50 is 29 nM.

Take `COC(=O)[C@@H](C)Cn1c(=O)[nH]/c(=N\c2ccc(OC3CCCC3)nc2)n(Cc2ccc(C)cc2)c1=O` [Compound I-1185]: the half-inhibitory concentration (IC50) is 116 nM.

On to `C=Cc1cc(/N=c2\[nH]c(=O)n(C[C@H](C)C(=O)OC)c(=O)n2Cc2ccc(C)cc2)ccc1OC(C)C` [Compound I-0907, (S)-1-(4-methylbenzyl)-6-(3-vinyl-4-isopropoxyphenylimino)-3-(2-methoxycarbonylpropyl)-1,3,5-triazinane-2,4-dion], for which the 50% inhibitory concentration (IC50) came out at 7 nM.

As for `CC(C)=Cc1ccc(/N=c2\[nH]c(=O)n(C[C@H](C)C(=O)O)c(=O)n2Cc2ccc(Cl)cc2)cc1Cl` [Compound I-0959], the IC50 turned out to be 7 nM.

Turning to `CCn1c(=O)[nH]/c(=N\c2ccc(Oc3cccc(CC(=O)OC)c3)cc2)n(Cc2ccc(Cl)cc2)c1=O` [Compound I-1889], the 50% inhibitory concentration (IC50) came to 23 nM.

As to `O=C(O)c1cc(Oc2ccc(/N=c3\[nH]c(=O)n(CCO)c(=O)n3Cc3ccc(Cl)cc3)cc2)ccn1` [Compound I-1797], the IC50 was found to be 6 nM.

With `CC(C)Oc1ccc(/N=c2\[nH]c(=O)n(CCC(=O)O)c(=O)n2CCC2C[C@H]3CC[C@@H]2C3)cc1F` (some centres unmarked) [Compound I-1729], the IC50 amounted to 669 nM.

With `CCOC(=O)CCn1c(=O)[nH]/c(=N\c2ccc(OCC3CC3)cc2)n(Cc2ccc(C)cc2)c1=O` [Compound I-1146], the IC50 amounted to 9 nM.

Turning to `CCn1c(=O)[nH]/c(=N\c2ccc(Oc3cccc(C(=O)O)c3)cc2)n(Cc2ccc(Cl)cc2)c1=O` [Compound I-1881], the IC50 was found to be 6 nM.

On to `COc1noc2cc(/N=c3\[nH]c(=O)n([C@@H](C)[C@@H](C)C(=O)O)c(=O)n3Cc3ccc(Cl)cc3)ccc12` [Compound I-1746], for which the IC50 turned out to be 129 nM.

On to `COC(=O)Cn1c(=O)[nH]/c(=N\c2ccc3nc(C)sc3c2)n(Cc2ccc(Cl)cc2)c1=O` [Compound I-1602], for which the IC50 is 5 nM.

As to `CCCOc1ccc(/N=c2\[nH]c(=O)n(CC3(C(=O)OCC)CC3)c(=O)n2Cc2ccc(C)cc2)cc1` [Compound I-0912], the IC50 was 10 nM.

Regarding `CCc1oc2ccc(/N=c3\[nH]c(=O)n(CC(CO)CO)c(=O)n3Cc3ccc(Cl)cc3)cc2c1C` [Compound I-1842], the IC50 worked out at 5 nM.

As for `CCc1oc2ccc(/N=c3\[nH]c(=O)n(CCCC(=O)O)c(=O)n3Cc3ccc(Cl)cc3)cc2c1C` [Compound I-1704], the 50% inhibitory concentration (IC50) was found to be 15 nM.

Regarding `CCOc1ccc(/N=c2\[nH]c(=O)n([C@@H](C)[C@@H](C)C(=O)OC)c(=O)n2Cc2ccc(C)cc2)cc1Cl` [Compound I-0966], the IC50 came out at 17 nM.

For `COC(=O)[C@@H](C)Cn1c(=O)[nH]/c(=N\c2ccc(OC(F)F)c(Cl)c2)n(Cc2ccc(C)cc2)c1=O` [Compound I-1022], the IC50 was 14 nM.

On to `CC(C)Oc1ccc(/N=c2\[nH]c(=O)n(C[C@H](C)C(=O)O)c(=O)n2Cc2ccc(I)cc2)cc1` [Compound I-1092], for which the IC50 stood at 69 nM.

Consider `CCc1oc2ccc(/N=c3\[nH]c(=O)n(CC4COC(C)(C)OC4)c(=O)n3Cc3ccc(Cl)cc3)cc2c1C` [Compound I-1840], for which the IC50 stood at 7 nM.

The same assay, now with this note: human P2X3 receptor, Test Example 1.
As for `Cc1cnc(Oc2ccc(/N=c3\[nH]c(=O)n(CC(O)CO)c(=O)n3Cc3ccc(Cl)cc3)cc2)s1` (centres unmarked) [Compound I-2456], the IC50 was determined as 8 nM.

As for `CCn1c(=O)[nH]/c(=N\c2ccc(Oc3cccc(C(=O)O)n3)cc2)n(Cc2ccc(Cl)cn2)c1=O` [Compound I-2239], the IC50 amounted to 49 nM.

As to `COC(=O)c1cc(Oc2ccc(/N=c3\[nH]c(=O)n(C)c(=O)n3Cc3ccc(Cl)cc3)cc2)ccn1` [Compound I-2377], the half-maximal inhibitory concentration (IC50) is 15 nM.

In the case of `Cc1sc(Oc2ccc(/N=c3\[nH]c(=O)n(C)c(=O)n3Cc3ccc(Cl)cc3)cc2)nc1C(=O)O` [Compound I-2451], the IC50 came to 25 nM.

In the case of `C[C@H](Cn1c(=O)[nH]/c(=N\c2ccc(N3CCCCC3)cc2)n(Cc2ccc(Cl)cc2)c1=O)C(=O)O` [Compound I-1486], the IC50 was 43 nM.

Turning to `COC(=O)[C@@H](C)Cn1c(=O)[nH]/c(=N\c2ccc(CC3CC3)c(Cl)c2)n(Cc2ccc(C)cc2)c1=O` [Compound I-1511], the IC50 amounted to 29 nM.

Take `CCn1c(=O)[nH]/c(=N\c2ccc(Oc3cncc(C(=O)O)n3)cc2)n(Cc2ccc(Cl)cc2)c1=O` [Compound I-2282]: the half-inhibitory concentration (IC50) is < 4 nM.

Turning to `Cn1c(=O)[nH]/c(=N\c2ccc(Oc3ccnc(C(N)=O)c3)cc2)n(Cc2ccc(Cl)cc2)c1=O` [Compound I-2378], the IC50 came to 6 nM.

As to `CCOC(=O)C1(Cn2c(=O)[nH]/c(=N\c3ccc4oc(CC)c(C)c4c3)n(Cc3ccc(C)cc3)c2=O)CC1` [Compound I-1546], the IC50 is 7 nM.

On to `CCn1c(=O)[nH]/c(=N\c2ccc(Oc3ccc(C#N)cc3)nc2)n(Cc2ccc(Cl)cc2)c1=O` [Compound I-2613], for which the concentration for half-maximal inhibition (IC50) was 137 nM.

For `COc1ccc(Oc2ccc(/N=c3\[nH]c(=O)n(CCC(=O)O)c(=O)n3Cc3ccc(Cl)cc3)cc2)cn1` [Compound I-1533], the IC50 is 16 nM.

For the molecule `CCOC(=O)CNc1ccc(Oc2ccc(/N=c3\[nH]c(=O)n(CC)c(=O)n3Cc3ccc(Cl)cc3)cc2)cn1` [Compound I-2614], the IC50 worked out at 27 nM.

For the molecule `COCc1c(Cl)cc(/N=c2\[nH]c(=O)n(C[C@H](C)C(=O)O)c(=O)n2Cc2ccc(C)cc2)cc1Cl` [Compound I-1501], the IC50 worked out at 11 nM.

Turning to `O=C(Cn1c(=O)[nH]/c(=N\c2ccc(Oc3cccnn3)cc2)n(Cc2ccc(Cl)cc2)c1=O)NCCO` [Compound I-2691], the IC50 was found to be 8 nM.

As to `CC[C@H](C)n1c(=O)[nH]/c(=N\c2ccc(Oc3ccnc(C(=O)O)c3)cc2)n(Cc2ccc(Cl)cc2)c1=O` [Compound I-2480], the IC50 is 6 nM.

With `CNC(=O)Nc1cc(Oc2ccc(/N=c3\[nH]c(=O)n(C)c(=O)n3Cc3ccc(Cl)cc3)cc2)ccn1` [Compound I-2656], the 50% inhibitory concentration (IC50) is 6 nM.

(Values after patent US9718790B2, “Triazine derivative and pharmaceutical composition having an analgesic activity comprising the same” (SHIONOGI & CO., LTD., priority 2010, dated 2017).)
